According to ChEMBL document CHEMBL1201862, “PubChem BioAssay data set” (2004):
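48-hour exposure; five concentrations; linearly interpolated endpoints. GI50 = concentration required for 50% inhibition of growth.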 Active and inactive are the calls of the source. Rule as the data show it: active = GI50 up to about 1.1 µM and inactive = higher.

Legend:
Test in all cases: NCI anticancer screen, dose series, 48 h
CCRF-CEM = test system: CCRF-CEM
DU-145 = test system: DU-145
EKVX = test system: EKVX
HCT-116 = test system: HCT-116
HL-60 = test system: HL-60
HOP-62 = test system: HOP-62
KM12 = test system: KM12
LOX IMVI = test system: LOX IMVI
MCF7 = test system: MCF7
MDA-MB-231 = test system: MDA-MB-231
MDA-N = test system: MDA-N
NCI-H23 = test system: NCI-H23
OVCAR-4 = test system: OVCAR-4
RPMI-8226 = test system: RPMI-8226
RXF 393 = test system: RXF 393
SF-295 = test system: SF-295
SK-MEL-5 = test system: SK-MEL-5
SNB-19 = test system: SNB-19
T47D = test system: T47D
UO-31 = test system: UO-31

SMILES	GI50 (CCRF-CEM)	GI50 (DU-145)	GI50 (EKVX)	GI50 (HCT-116)	GI50 (HL-60)	GI50 (HOP-62)	GI50 (KM12)	GI50 (LOX IMVI)	GI50 (MCF7)	GI50 (MDA-MB-231)	GI50 (MDA-N)	GI50 (NCI-H23)	GI50 (OVCAR-4)	GI50 (RPMI-8226)	GI50 (RXF 393)	GI50 (SF-295)	GI50 (SK-MEL-5)	GI50 (SNB-19)	GI50 (T47D)	GI50 (UO-31)
O=C(Nc1ccn(C2CCC(COC(c3ccccc3)(c3ccccc3)c3ccccc3)O2)c(=O)n1)c1ccccc1 (centres undefined)	3.28 µM (inactive)	7.91 µM (inactive)	5.11 µM (inactive)	3.33 µM (inactive)	1.83 µM (inactive)	10.7 µM (inactive)	5.87 µM (inactive)	2.72 µM (inactive)	4.22 µM (inactive)	5.87 µM (inactive)	3.57 µM (inactive)	2.31 µM (inactive)	2.82 µM (inactive)	2.31 µM (inactive)	2.9 µM (inactive)	3.11 µM (inactive)	2.78 µM (inactive)	5.66 µM (inactive)	7.46 µM (inactive)	5.3 µM (inactive)
CCOC(=O)C1CCC(=O)N1C(=O)c1ccc(Cl)cc1 (centres undefined)	> 100 µM (inactive)	> 100 µM (inactive)	> 100 µM (inactive)	> 100 µM (inactive)	> 100 µM (inactive)	> 100 µM (inactive)	> 100 µM (inactive)	> 100 µM (inactive)	> 100 µM (inactive)	> 100 µM (inactive)	> 100 µM (inactive)	> 100 µM (inactive)		> 100 µM (inactive)	> 100 µM (inactive)	> 100 µM (inactive)	> 100 µM (inactive)	> 100 µM (inactive)	> 100 µM (inactive)	> 100 µM (inactive)
N#CC1=C(N)N(c2ccccc2)C(c2ccco2)C1(C#N)C#N (centres undefined)	14.3 µM (inactive)	19.4 µM (inactive)	20 µM (inactive)	28.5 µM (inactive)	17.5 µM (inactive)	21.8 µM (inactive)	17.4 µM (inactive)	16.7 µM (inactive)	17.4 µM (inactive)	15.3 µM (inactive)	27.8 µM (inactive)	19.9 µM (inactive)	21.3 µM (inactive)	19.4 µM (inactive)	17.5 µM (inactive)	28.4 µM (inactive)	17.4 µM (inactive)	26.9 µM (inactive)	15.2 µM (inactive)	18.7 µM (inactive)
CC(NCc1c(O)ccc2ccc(=O)oc12)C(=O)O (centres undefined)	> 100 µM (inactive)	> 100 µM (inactive)	> 100 µM (inactive)	> 100 µM (inactive)	> 100 µM (inactive)	> 100 µM (inactive)	> 100 µM (inactive)	> 100 µM (inactive)	> 100 µM (inactive)	> 100 µM (inactive)	> 100 µM (inactive)	> 100 µM (inactive)	> 100 µM (inactive)	> 100 µM (inactive)	> 100 µM (inactive)	> 100 µM (inactive)	> 100 µM (inactive)	> 100 µM (inactive)	> 100 µM (inactive)	> 100 µM (inactive)
COc1ccc2[nH]c(Cl)c(/C=C3/C(=O)N(c4ccccc4)c4ccccc43)c2c1	2.96 µM (inactive)	18.3 µM (inactive)	7.08 µM (inactive)	5.07 µM (inactive)	2.33 µM (inactive)	6.81 µM (inactive)	3.25 µM (inactive)	3.29 µM (inactive)	0.506 µM (active)	6.35 µM (inactive)	1.6 µM (inactive)	4.06 µM (inactive)		2.82 µM (inactive)	15.9 µM (inactive)	2.48 µM (inactive)	2.28 µM (inactive)	9.46 µM (inactive)	3.76 µM (inactive)	7.59 µM (inactive)
CC(NCc1c(O)ccc2c(-c3ccccc3)cc(=O)oc12)C(=O)O (centres undefined)	> 100 µM (inactive)	> 100 µM (inactive)	> 100 µM (inactive)	> 100 µM (inactive)	> 100 µM (inactive)	> 100 µM (inactive)	> 100 µM (inactive)	> 100 µM (inactive)	> 100 µM (inactive)	> 100 µM (inactive)	> 100 µM (inactive)	> 100 µM (inactive)	> 100 µM (inactive)	> 100 µM (inactive)	> 100 µM (inactive)	> 100 µM (inactive)	> 100 µM (inactive)	> 100 µM (inactive)	> 100 µM (inactive)	> 100 µM (inactive)
COC(=O)c1cc(=O)nc2sc3cccc(C)c3n12	20.2 µM (inactive)	> 100 µM (inactive)	29.6 µM (inactive)	28.8 µM (inactive)	19 µM (inactive)	> 100 µM (inactive)	> 100 µM (inactive)	14.8 µM (inactive)	52.5 µM (inactive)	24.8 µM (inactive)	44 µM (inactive)	55 µM (inactive)	> 100 µM (inactive)	22 µM (inactive)	56.1 µM (inactive)	67 µM (inactive)	60.7 µM (inactive)	46.3 µM (inactive)	37.8 µM (inactive)	
Cc1cc(C)c2c(O)cc(-c3ccc4ccccc4c3)nc2n1	11.6 µM (inactive)	21.7 µM (inactive)	29.5 µM (inactive)	13.8 µM (inactive)	3.04 µM (inactive)	32.1 µM (inactive)	6.04 µM (inactive)	17.9 µM (inactive)	15.5 µM (inactive)	23.1 µM (inactive)	3.34 µM (inactive)	30.8 µM (inactive)	14.6 µM (inactive)	6.31 µM (inactive)	71.6 µM (inactive)	16.2 µM (inactive)	2.7 µM (inactive)	30.9 µM (inactive)	17.3 µM (inactive)	22.9 µM (inactive)
Cc1cc2c(cc1C)C(=O)C1(C2)Cc2c(ccc(C)c2C)C1=O (centres undefined)	> 100 µM (inactive)	> 100 µM (inactive)	> 100 µM (inactive)	> 100 µM (inactive)	> 100 µM (inactive)		> 100 µM (inactive)	> 100 µM (inactive)	> 100 µM (inactive)	> 100 µM (inactive)	> 100 µM (inactive)		75.5 µM (inactive)	> 100 µM (inactive)	53.8 µM (inactive)	> 100 µM (inactive)	> 100 µM (inactive)	> 100 µM (inactive)	> 100 µM (inactive)	> 100 µM (inactive)
COC(=O)C1=CCC[C@H]2[C@@]1(COC(C)=O)CC[C@@H](C)[C@]2(C)CC(=O)c1ccoc1	10.3 µM (inactive)	21.5 µM (inactive)	24.3 µM (inactive)	9.91 µM (inactive)	10.8 µM (inactive)		14.4 µM (inactive)	10.8 µM (inactive)	16.1 µM (inactive)	17.2 µM (inactive)	16.5 µM (inactive)	13.8 µM (inactive)	14.5 µM (inactive)	11.4 µM (inactive)	19.6 µM (inactive)	19.3 µM (inactive)	8.89 µM (inactive)	27.9 µM (inactive)	8.47 µM (inactive)	13.4 µM (inactive)
COc1ccccc1N/C(=C\C(=O)C(=O)NC12CC3CC(CC(C3)C1)C2)c1ccccc1	> 10 µM (inactive)	> 10 µM (inactive)	> 10 µM (inactive)		> 10 µM (inactive)	> 10 µM (inactive)	> 10 µM (inactive)	> 10 µM (inactive)	> 10 µM (inactive)	> 10 µM (inactive)	> 10 µM (inactive)	> 10 µM (inactive)	9.82 µM (inactive)	> 10 µM (inactive)	> 10 µM (inactive)	> 10 µM (inactive)	> 10 µM (inactive)		> 10 µM (inactive)	7.73 µM (inactive)
C=C1C(=O)OC2CC(C)C(/C=C/C(C)=O)=CCC12 (centres undefined)	40 µM (inactive)	> 100 µM (inactive)	> 100 µM (inactive)	43.3 µM (inactive)	33.1 µM (inactive)	> 100 µM (inactive)	> 100 µM (inactive)	> 100 µM (inactive)	> 100 µM (inactive)	> 100 µM (inactive)	> 100 µM (inactive)	> 100 µM (inactive)	> 100 µM (inactive)	86.1 µM (inactive)	> 100 µM (inactive)	> 100 µM (inactive)	71.8 µM (inactive)	> 100 µM (inactive)	> 100 µM (inactive)	
Cc1ccnc2nc(-c3cccc(Cl)c3)cc(O)c12	0.0553 µM (active)	0.495 µM (active)	> 100 µM (inactive)	0.0269 µM (active)	0.0115 µM (active)	0.0708 µM (active)	0.0682 µM (active)	0.155 µM (active)	0.36 µM (active)	0.108 µM (active)	0.0108 µM (active)	0.826 µM (active)	> 91.4 µM (inactive)	0.0356 µM (active)	2.77 µM (inactive)	0.0426 µM (active)	0.038 µM (active)	0.132 µM (active)	> 100 µM (inactive)	
COc1cc(CSc2ccc(O)cc2)cc(OC)c1OC	> 10 µM (inactive)	53.2 µM (inactive)	39.8 µM (inactive)	53 µM (inactive)	20.4 µM (inactive)	49.7 µM (inactive)	30.2 µM (inactive)	59.8 µM (inactive)	4.31 µM (inactive)	43.2 µM (inactive)	30.5 µM (inactive)	28.6 µM (inactive)		21.3 µM (inactive)	> 100 µM (inactive)	24.9 µM (inactive)	18 µM (inactive)	34.6 µM (inactive)	22.6 µM (inactive)	14.5 µM (inactive)
